Assay results: patent US5574057A, “Naamidine A extracted from sea sponges and methods for its use as an anti-tumor agent” (priority 1994, dated 1996)
Entries after “also recorded” stand apart in the source; their conditions may differ.

How the values were obtained:
[1] = system: EGF-induced mitogenesis in EC25 cells (NIH3T3 cells transfected with the EGF receptor gene); experiment: EGF mitogenic assay (3H-thymidine incorporation), EGF stimulation; type: cell-based, human
From the text: The assay to determine a compound's selectivity compares the level of inhibition of the targeted activity (EGF stimulation of cell growth) with the inhibition of insulin stimulated cell growth.
(§1) An in vitro bioassay, called the EGF mitogenic assay, was used to aid in the identification of antagonists of EGF dependent cell proliferation. The mitogenic response due to EGF is quantified by measuring the incorporation of ^3 H-thymidine into NIH3T3 cells (or "EC25 cells") that have been transfected with the EGF receptor gene. Stimulation of these cells with insulin is used as a "nonspecific" mitogen control. Samples were preincubated with the EC25 cells for one hour before the addition of the mitogen, then further incubated for 16 hours, and mitogenic stimulation assessed by a one hour incorporation of ^3 H-thymidine. The development of the EC25 cell line, and the EGF mitogenic assay in which it is used, is explained in greater detail in Velu, T. J. et al., "Epidermal Growth Factor-Dependent Transformation by a Human EGF Receptor Proto-Oncogene, " Science 238:1408-10 (1987).
(§2) The concentration at which control insulin stimulation is inhibited 50% by the test sample (IC50(insutin)) was calculated as was the same value for EGF (IC50(EGF)). These values were then used to calculate a specificity ratio which is IC50(insulin)/ IC50(EGF).
These activity criteria help determine which inhibitors are specific for the EGF signalling pathway.

[2] = system: insulin stimulation of EC25 cells; experiment: EGF mitogenic assay (3H-thymidine incorporation), insulin stimulation as nonspecific mitogen control; type: cell-based; details: pure sample
Procedure: as §1, §2

EGF receptor = experiment: competition with binding of biotinylated EGF to A431 cells; design: species or system human; details: up to 500 μg/ml
Procedure: Experimental Test 4. Presently, the mechanism of action of naamidine A for inhibition of the EGF signalling pathway is unknown. […] This assay measured the ability of naamidine A to compete with the binding of biotinylated EGF to the EGF receptor, which is highly over expressed in A431 human squamous cell carcinoma cells.
In the assay represented in FIG. 3, the A431 cells were incubated in the presence of either the EGF standard or naamidine A plus biotinylated EGF for one hour and the degree of inhibition of biotinylated EGF binding to the EGF receptor was quantified using a peroxidase-linked anti-biotin antibody. The solid circles (.circle-solid.) in FIG. 3 represent the level of binding of EGF to cell receptors when the cells are subjected to various levels of naamidine A. The open circles (.largecircle.) represent the level of binding of EGF to cell receptors when the cells are subjected to various levels of EGF, which is used as a positive control.

c-src tyrosine kinase = c-src tyrosine kinase (Homo sapiens, UniProt P12931); experiment: c-src tyrosine kinase assay (phosphorylation of RCM lysozyme); type: biochemical; details: isolated c-src, RCM lysozyme substrate, 30 minutes
Procedure: Experimental Test 5. […] In this assay, phosphorylation of the substrate RCM (reduced, carboxyamidomethylated and maleylated) lysozyme by c-src is quantified using a peroxidase-linked anti-phosphotyrosine antibody to determine the activity of this kinase.
The sample of naamidine A was incubated with the substrate RCM […], c-src enzyme, and ATP for 30 minutes, after which time the reaction was terminated and tyrosine phosphorylation was assessed using a peroxidase-linked antiphosphotyrosine antibody.

[3] = system: human squamous cell carcinoma (A431); experiment: first in vivo test, A431 xenograft in athymic mice, assessed 15 days after implantation (Experimental Test 7); design: species or system human tumor in athymic mice; details: for % Inhibition of tumor growth: q1d×5;1, 15 days; for toxicity: 100 mg/kg
Procedure: Tumor growth was assessed by measuring the change in tumor size over a fifteen day period. Although naamidine A inhibited tumor growth, the inhibition was a modest 37%. Therefore, a second evaluation was carried out using a different schedule of treatment and evaluation.
J. Oncology, 1:293-298 (1992).
Tumor growth was calculated as FTS/ITS. […] Experimental Test 7.
The effect of naamidine A on the tumor was assessed 15 days after tumor implantation and there were six mice per treatment group.

[4] = system: human squamous cell carcinoma (A431); experiment: second in vivo test, A431 xenograft in athymic mice, assessed 7 days after implantation (Experimental Test 8); details: for % Inhibition of tumor growth: q1d×5;1, 7 days; for deaths: q1d×5;1, six mice per group
Procedure: In this test, the mice were treated with varying dosages of naamidine A for five days after implantation of the carcinoma. The tumors were then evaluated for growth activity seven days after implantation, as determined by the change in tumor size.
The model system used for these in vivo studies was a human squamous cell carcinoma (A431) that over expresses the EGF receptor, which was implanted into athymic mice.
According to Robinson et al., the A431 cell line was adapted to grow in female athymic mice by s.c. inoculation of 10^7 cultured cells into the axillary region. Tumors were passaged in female athymic mice by sterile dissection of solid tumors and s.c. implantation of tumor fragments into the axillary region.
Drug effects were calculated as the mean % inhibition the drug treatment produced on tumor growth when compared to control. Inhibition of >80% of tumor growth was considered a working criteria for "active".
In this second in vivo test, the length of time for tumor growth was shortened to seven days to more closely coincide with the time of drug treatment. Two groups of twelve mice each were treated with the standard antibody (MA225), while there were six mice per group treated with varying doses of naamidine A.
The tumor was exposed to the test agent (naamidine A) once a day for 5 days (q1 d×5; 1), which was nearly the entire length of the growth period of 7 days. During this time, the tumor would normally be expected to double about 1.5 times instead of 3 times for a 15 day period.
Under these conditions, doses ranging from 0.78 mg/kg to 50 mg/kg were given using the same dosing schedule as with the first experiment.

[5] = 25 mg/kg, listed as Naamidine A

Procedure for HCT116 colon cells: In the XTT assay, cells are plated at 4000 cells/well in 96 well microtiter plates; 24 hours later the test drugs are added and serially diluted. The cells are incubated at 37° C. for 72 hours, at which time the tetrazolium dye, XTT, is added. A dehydrogenase enzyme in live cells reduces the XTT to a form that absorbs light at 450 nm which can be quantitated spectrophotometrically. The greater the absorbance the greater the number of live cells. The results are expressed as an IC50 which is the drug concentration required to inhibit cell proliferation (i.e., absorbance at 450 nm) to 50% of that of untreated control cells.

naamidine A
activity in the EGF assay (in words) ([1]; EC25 cells): very good activity
IC50(EGF) ([1]; EC25 cells, EGF stimulation, pure sample): 4.8 µg/mL
IC50(insulin)/IC50(EGF) ratio ([1]; EC25 cells, specificity ratio): 22
specificity for EGF versus insulin stimulated response (in words) ([1]; tritiated thymidine incorporation after EGF or insulin stimulation): less potent in inhibiting insulin stimulated cell proliferation compared to EGF stimulated growth; also recorded: more specific for the EGF mediated mitogenic response than for the insulin mediated mitogenic response
selectivity in inhibiting EGF dependent growth relative to insulin dependent growth ([1]; tritiated thymidine incorporation, preliminary testing): about 22 times
IC50(insulin) [2]: 105.6 µg/mL
effect on binding of EGF to its receptor (EGF receptor): does not appear to affect the binding of EGF to its corresponding receptor cite; also recorded: did not appear to effect the binding of EGF to receptor sites
inhibition of c-src tyrosine kinase activity (in words) (c-src tyrosine kinase): lack of c-src tyrosine kinase activity; also recorded: not inhibit the activity of the isolated c-src tyrosine kinase; also recorded: no significant inhibition of c-src tyrosine kinase activity
% Inhibition of tumor growth ([3]; 1.6 mg/kg): 36.6%
% Inhibition of tumor growth ([3]; 6.25 mg/kg): 32.2%
% Inhibition of tumor growth ([3]; 25 mg/kg): 37%
% Inhibition of tumor growth [3, 5]: 37.1%
net reduction in tumor cell growth ([3]; first in vivo test, 15 days, includes period of regrowth): 30-40%
toxicity ([3]; mice, q1d×5;1): toxic to the mice
toxicity ([3]; mice, q1d×5;1, listed as Naamidine A): toxic (multiple deaths)
maximally tolerated dose ([3]; mice, q1d×5;1, 21600 min): 25 mg/kg
general in vitro cytotoxicity (in words) (HCT116 colon cells): relatively low general in vitro cytotoxicity
IC50 (HCT116 colon cells; HCT116, XTT, 72 hours): 31 µg/mL
% Inhibition of tumor growth ([4]; 1.56 mg/kg): 47.9%
% Inhibition of tumor growth ([4]; 3.13 mg/kg): 35%
% Inhibition of tumor growth ([4]; 6.25 mg/kg): -7.5%
% Inhibition of tumor growth ([4]; 12.5 mg/kg): 52%
% Inhibition of tumor growth ([4]; 25 mg/kg): at least 85%
% Inhibition of tumor growth [4, 5]: 87.4%
% Inhibition of tumor growth ([4]; 50 mg/kg): 96.4%
deaths (in words) ([4]; mice, 25 mg/kg): death of one mouse
deaths ([4]; mice, 25 mg/kg): 1 death
toxicity (in words) ([4]; mice, 50 mg/kg): toxic to many of the mice
deaths ([4]; mice, 50 mg/kg): 2 deaths
maximal tolerated dose ([4]; mice, q1d×5;1, 10080 min): 25 mg/kg
LD-10 (dose at which 10% of the mice died) ([4]; mice, q1d×5;1, roughly estimated from Experimental Test 8): about 25 mg/kg
Tumor growth inhibition ([4]; somewhat toxic doses, 7 days, best results at about 25 mg/kg): about 85%
